Values after ≈ are worked out from the molar mass of the structure shown.
Key:
Assay in all cases: Minimum inhibitory concentration (MIC90)
Type in all cases: cell-based
[1] = system: H influenzae/β-lactamase negative; conditions: inhibits growth of 90% of the strains
Text: (§1) The concentrations of the antibiotics of formula (I) in the compositions of the present invention will vary depending on the intended use of the compositions (e.g., treatment of existing infections or prevention of post-surgical infections), and the relative antimicrobial activity of the specific antibiotic selected. The antimicrobial activity of antibiotics is generally expressed as the minimum concentration required to inhibit the growth of a specified pathogen. This concentration is also referred to as the “minimum inhibitory concentration” or “MIC”. The term “MIC90” refers to the minimum concentration of antibiotic required to inhibit the growth of ninety percent (90%) of the strains of a species. The concentration of an antibiotic required to totally kill a specified bacteria is referred to as the “minimum bactericidal concentration” or “MBC”.

[2] = system: H. influenzae/β-lactamase positive; conditions: Haemophilus influenzae, inhibits growth of 90% of the strains
Text: as §1

P. aeruginosa = conditions: Pseudomonas aeruginosa, inhibits growth of 90% of the strains
Text: as §1

[3] = system: S. aureus/methicillin resistant; conditions: Staphylococcus aureus, inhibits growth of 90% of the strains
Text: as §1

[4] = system: S. aureus/methicillin sensitive; conditions: Staphylococcus aureus, inhibits growth of 90% of the strains
Text: as §1

[5] = system: S. aureus/quinolone resistant; conditions: Staphylococcus aureus, inhibits growth of 90% of the strains
Text: as §1

[6] = system: S. epidermidis/methicillin resistant; conditions: Staphylococcus epidermidis, inhibits growth of 90% of the strains
Text: as §1

[7] = system: S. epidermidis/methicillin sensitive; conditions: Staphylococcus epidermidis, inhibits growth of 90% of the strains
Text: as §1

[8] = system: S. pneumoniae/penicillin resistant; conditions: Streptococcus pneumoniae, inhibits growth of 90% of the strains
Text: as §1

[9] = system: S. pneumoniae/penicillin sensitive; conditions: Streptococcus pneumoniae, inhibits growth of 90% of the strains
Text: as §1

- MIC90 [1]: 0.06 µg/mL (≈ 0.149 µM)
- MIC90 [2]: 0.06 µg/mL (≈ 0.149 µM)
- MIC90 (P. aeruginosa): 8 µg/mL (≈ 19.9 µM)
- MIC90 [3]: 4 µg/mL (≈ 9.96 µM)
- MIC90 [4]: 0.13 µg/mL (≈ 0.324 µM)
- MIC90 [5]: 4 µg/mL (≈ 9.96 µM)
- MIC90 [6]: 4 µg/mL (≈ 9.96 µM)
- MIC90 [7]: 0.25 µg/mL (≈ 0.623 µM)
- MIC90 [8]: 0.25 µg/mL (≈ 0.623 µM)
- MIC90 [9]: 0.25 µg/mL (≈ 0.623 µM)
Structure (SMILES): COc1c(N2C[C@@H]3CCCN[C@@H]3C2)c(F)cc2c(=O)c(C(=O)O)cn(C3CC3)c12 [Moxifloxacin]
